# Tested on: MV-4-11 cells
# Assay: Gene expression microarray analysis (Affymetrix PrimeView) and GSEA
# Type: cell-based, human
# Set-up: RFU PODN (11730768_x_at) / Fold change /veh PODN (11730768_x_at) / RFU LINC00158 (11744669_a_at) / Fold change /veh LINC00158 (11744669_a_at) / RFU DUSP10 (11751237_a_at) / Fold change /veh DUSP10 (11751237_a_at) / RFU ID3 (11757404_x_at) / Fold change /veh ID3 (11757404_x_at) / RFU PLEKHG5 (11737974_s_at) / Fold change /veh PLEKHG5 (11737974_s_at) / RFU LRRC4B (11730491_at) / Fold change /veh LRRC4B (11730491_at) / RFU GIMAP4 (11747438_a_at) / Fold change /veh GIMAP4 (11747438_a_at) / RFU KRT8 (11758183_x_at) / Fold change /veh KRT8 (11758183_x_at) / RFU CNN1 (11734310_a_at) / Fold change /veh CNN1 (11734310_a_at) / RFU VPS37D (11726825_at) / Fold change /veh VPS37D (11726825_at) / RFU C10orf10 (11716522_x_at) / Fold change /veh C10orf10 (11716522_x_at) / RFU KIR2DL2 /// KIR2DL4 /// KIR2DL5A /// KIR2DL5B /// KIR2DS1 /// KIR2DS2 /// KIR2DS3 /// KIR2DS4 /// KIR3DL3 /// KIR3DL3 /// KIR3DS1 (11738374_at) / Fold change /veh KIR2DL2 /// KIR2DL4 /// KIR2DL5A /// KIR2DL5B /// KIR2DS1 /// KIR2DS2 /// KIR2DS3 /// KIR2DS4 /// KIR3DL3 /// KIR3DL3 /// KIR3DS1 (11738374_at) / RFU C1QL1 (11718748_at) / Fold change /veh C1QL1 (11718748_at) / RFU TMPRSS4 (11747572_a_at) / Fold change /veh TMPRSS4 (11747572_a_at) / RFU HAMP (11756126_x_at) / Fold change /veh HAMP (11756126_x_at) / RFU RNFT2 (11725882_a_at) / Fold change /veh RNFT2 (11725882_a_at) / RFU NR4A2 (11747474_a_at) / Fold change /veh NR4A2 (11747474_a_at) / RFU ABCC12 (11746883_a_at) / Fold change /veh ABCC12 (11746883_a_at) / RFU TMEM136 (11760407_x_at) / Fold change /veh TMEM136 (11760407_x_at) / RFU CLDN22 /// WWC2 (11732394_at) / Fold change /veh CLDN22 /// WWC2 (11732394_at) / RFU HLA-DPB1 (11760878_x_at) / Fold change /veh HLA-DPB1 (11760878_x_at) / RFU SPINT1 (11716480_a_at) / Fold change /veh SPINT1 (11716480_a_at) / RFU GAP43 (11754022_s_at) / Fold change /veh GAP43 (11754022_s_at) / RFU A4GNT (11735810_at) / Fold change /veh A4GNT (11735810_at) / RFU PRB3 (11715151_x_at) / Fold change /veh PRB3 (11715151_x_at) / RFU TUBB4B (11761932_at) / Fold change /veh TUBB4B (11761932_at) / RFU CAPN14 (11732068_a_at) / Fold change /veh CAPN14 (11732068_a_at) / RFU TMCC2 (11721928_a_at) / Fold change /veh TMCC2 (11721928_a_at) / RFU IRGQ (11745062_a_at) / Fold change /veh IRGQ (11745062_a_at) / RFU FAM174B (11720279_a_at) / Fold change /veh FAM174B (11720279_a_at) / RFU TMPRSS4 (11748680_a_at) / Fold change /veh TMPRSS4 (11748680_a_at) / RFU FAM212B (11763350_a_at) / Fold change /veh FAM212B (11763350_a_at) / RFU PLEKHG5 (11743358_a_at) / Fold change /veh PLEKHG5 (11743358_a_at) / RFU ZSCAN30 (11745921_a_at) / Fold change /veh ZSCAN30 (11745921_a_at) / RFU CMKLR1 (11741424_a_at) / Fold change /veh CMKLR1 (11741424_a_at) / RFU LOC101060620 /// MAPK8IP1 (11723275_at) / Fold change /veh LOC101060620 /// MAPK8IP1 (11723275_at) / RFU SPTSSB (11747773_x_at) / Fold change /veh SPTSSB (11747773_x_at) / RFU PRSS12 (11739890_at) / Fold change /veh PRSS12 (11739890_at) / RFU BIN1 (11741810_x_at) / Fold change /veh BIN1 (11741810_x_at) / RFU WNT11 (11732464_a_at) / Fold change /veh WNT11 (11732464_a_at) / RFU C10orf10 (11716521_a_at) / Fold change /veh C10orf10 (11716521_a_at) / RFU C5orf56 (11738089_at) / Fold change /veh C5orf56 (11738089_at) / RFU CYB561 (11721691_x_at) / Fold change /veh CYB561 (11721691_x_at) / RFU ANKRD19P (11752326_a_at) / Fold change /veh ANKRD19P (11752326_a_at) / RFU OR2T12 /// OR2T33 /// OR2T8 (11738714_s_at) / Fold change /veh OR2T12 /// OR2T33 /// OR2T8 (11738714_s_at) / RFU VCAN (11748164_a_at) / Fold change /veh VCAN (11748164_a_at) / RFU JSRP1 (11732532_at) / Fold change /veh JSRP1 (11732532_at) / RFU KRTAP10-11 (11738290_x_at) / Fold change /veh KRTAP10-11 (11738290_x_at) / RFU MYO3A (11730013_a_at) / Fold change /veh MYO3A (11730013_a_at) / RFU EBF3 (11725865_a_at) / Fold change /veh EBF3 (11725865_a_at) / RFU CAMK2N1 (11719241_x_at) / Fold change /veh CAMK2N1 (11719241_x_at) / RFU C5orf56 (11738088_a_at) / Fold change /veh C5orf56 (11738088_a_at) / RFU OLFML3 (11715873_a_at) / Fold change /veh OLFML3 (11715873_a_at) / RFU LOC100653217 /// NTM (11731650_a_at) / Fold change /veh LOC100653217 /// NTM (11731650_a_at) / RFU MAPK11 (11762145_a_at) / Fold change /veh MAPK11 (11762145_a_at) / RFU FIZ1 (11724087_x_at) / Fold change /veh FIZ1 (11724087_x_at) / RFU OASL (11726364_x_at) / Fold change /veh OASL (11726364_x_at) / RFU SOX15 (11748057_x_at) / Fold change /veh SOX15 (11748057_x_at) / RFU CD79A (11719716_a_at) / Fold change /veh CD79A (11719716_a_at) / RFU HIST1H1D (11736915_at) / Fold change /veh HIST1H1D (11736915_at) / RFU CASKIN2 (11723855_a_at) / Fold change /veh CASKIN2 (11723855_a_at) / RFU LOC730098 (11760151_x_at) / Fold change /veh LOC730098 (11760151_x_at) / RFU OR4N2 (11742367_at) / Fold change /veh OR4N2 (11742367_at) / RFU PRRT2 (11749266_a_at) / Fold change /veh PRRT2 (11749266_a_at) / RFU SNX32 (11753110_a_at) / Fold change /veh SNX32 (11753110_a_at) / RFU CDHR5 (11726645_a_at) / Fold change /veh CDHR5 (11726645_a_at) / RFU RCAN1 (11760418_a_at) / Fold change /veh RCAN1 (11760418_a_at) / RFU FAM167A (11723789_a_at) / Fold change /veh FAM167A (11723789_a_at) / RFU FAM26E (11764081_at) / Fold change /veh FAM26E (11764081_at) / RFU ISYNA1 (11749810_s_at) / Fold change /veh ISYNA1 (11749810_s_at) / RFU ACY1 (11761880_at) / Fold change /veh ACY1 (11761880_at) / RFU 11764098_at / Fold change /veh 11764098_at / RFU SAMD14 (11745864_x_at) / Fold change /veh SAMD14 (11745864_x_at) / RFU NPB (11741838_a_at) / Fold change /veh NPB (11741838_a_at) / RFU TMPRSS6 (11731388_a_at) / Fold change /veh TMPRSS6 (11731388_a_at) / RFU KRTAP10-2 (11738614_at) / Fold change /veh KRTAP10-2 (11738614_at) / RFU ARHGAP8 /// PRR5-ARHGAP8 (11727945_x_at) / Fold change /veh ARHGAP8 /// PRR5-ARHGAP8 (11727945_x_at) / RFU KRTAP5-7 /// NADSYN1 (11734609_at) / Fold change /veh KRTAP5-7 /// NADSYN1 (11734609_at) / RFU RASL12 (11751679_a_at) / Fold change /veh RASL12 (11751679_a_at) / RFU CDKN2B (11736163_a_at) / Fold change /veh CDKN2B (11736163_a_at) / RFU PRF1 (11729649_at) / Fold change /veh PRF1 (11729649_at) / RFU, ZNF638 /// ZNF638-IT1 / Fold change vs veh, ZNF638 /// ZNF638-IT1 / RFU, PANK3 / Fold change vs veh, PANK3 / RFU, SH3YL1 / Fold change vs veh, SH3YL1 / RFU, ZEB2 / Fold change vs veh, ZEB2 / RFU, NRIP1 / Fold change vs veh, NRIP1 / RFU, PTTG1IP / Fold change vs veh, PTTG1IP / RFU, CAPN2 / Fold change vs veh, CAPN2 / RFU, MED14 / Fold change vs veh, MED14 / RFU, SNORA58 / Fold change vs veh, SNORA58 / RFU, C1orf63 / Fold change vs veh, C1orf63 / RFU, LRRFIP1 / Fold change vs veh, LRRFIP1 / RFU, NDUFAF7 / Fold change vs veh, NDUFAF7 / RFU, SLC12A2 / Fold change vs veh, SLC12A2 / RFU, IBTK / Fold change vs veh, IBTK / RFU, ESF1 / Fold change vs veh, ESF1 / Fold change vs veh, TMEM50B / RFU, TAOK1 / Fold change vs veh, TAOK1 / RFU, ACBD3 / Fold change vs veh, ACBD3 / RFU, TMA16 / Fold change vs veh, TMA16 / RFU, RWDD3 / Fold change vs veh, RWDD3 / RFU, BCAT1 / Fold change vs veh, BCAT1 / RFU, EDEM3 / Fold change vs veh, EDEM3 / RFU, TMEM33 / Fold change vs veh, TMEM33 / RFU, WDR75 / Fold change vs veh, WDR75 / RFU, AHCTF1 / Fold change vs veh, AHCTF1 / RFU, TFRC / Fold change vs veh, TFRC / RFU, ZDHHC17 / Fold change vs veh, ZDHHC17 / RFU, NOM1 / Fold change vs veh, NOM1 / RFU, ARL8B / Fold change vs veh, ARL8B / RFU, ZBTB11 / Fold change vs veh, ZBTB11 / RFU, TAMM41 / Fold change vs veh, TAMM41 / RFU, KIAA1704 /// LOC100996395 / Fold change vs veh, KIAA1704 /// LOC100996395 / RFU, ING1 / Fold change vs veh, ING1 / RFU, TRMT61B / Fold change vs veh, TRMT61B / RFU, FUBP3 / Fold change vs veh, FUBP3 / RFU, TP53 / Fold change vs veh, TP53 / RFU, TNKS2 / Fold change vs veh, TNKS2 / RFU, ZFP14 / Fold change vs veh, ZFP14 / RFU, ACTR2 / Fold change vs veh, ACTR2 / RFU, PPP3R1 / Fold change vs veh, PPP3R1 / RFU, PIK3R1 / Fold change vs veh, PIK3R1 / RFU, HNRNPA1 / Fold change vs veh, HNRNPA1 / RFU, RNF170 / Fold change vs veh, RNF170 / RFU, ZNF28 / Fold change vs veh, ZNF28 / RFU, RNGTT / Fold change vs veh, RNGTT / RFU, OGT / Fold change vs veh, OGT / RFU, BRD1 / Fold change vs veh, BRD1 / RFU, MARS / Fold change vs veh, MARS / RFU, ZNF655 / Fold change vs veh, ZNF655 / RFU, FAHD1 / Fold change vs veh, FAHD1 / RFU, BDP1 / Fold change vs veh, BDP1 / RFU, LRRCC1 / Fold change vs veh, LRRCC1 / RFU, ARID1A / Fold change vs veh, ARID1A / RFU, ZNF146 / Fold change vs veh, ZNF146 / RFU, ZNF330 / Fold change vs veh, ZNF330 / RFU, GPN3 / Fold change vs veh, GPN3 / RFU, C9orf123 / Fold change vs veh, C9orf123 / RFU, N4BP2L2 / Fold change vs veh, N4BP2L2 / RFU, ARFIP1 / Fold change vs veh, ARFIP1 / RFU, FAM179B / Fold change vs veh, FAM179B / RFU, BCL10 / Fold change vs veh, BCL10 / RFU, UHRF1BP1L / Fold change vs veh, UHRF1BP1L / RFU, BET1 / Fold change vs veh, BET1 / RFU, CNOT2 / Fold change vs veh, CNOT2 / RFU, ZNF268 / Fold change vs veh, ZNF268 / Fold change vs veh, ZNF507 / RFU, DGCR2 / Fold change vs veh, DGCR2 / RFU, WDSUB1 / Fold change vs veh, WDSUB1 / Fold change vs veh, HSP90B1 /// MIR3652 / RFU, ADSS / Fold change vs veh, ADSS / RFU, GK / Fold change vs veh, GK / RFU, ZNF148 / Fold change vs veh, ZNF148 / RFU, TAF9 / Fold change vs veh, TAF9 / RFU, SLC1A5 / Fold change vs veh, SLC1A5 / RFU, SLMO2 / Fold change vs veh, SLMO2 / RFU, ABCC4 / Fold change vs veh, ABCC4 / RFU, LOC101060439 /// RAP1B / Fold change vs veh, LOC101060439 /// RAP1B / RFU, RFX7 / Fold change vs veh, RFX7 / RFU, GTPBP10 / Fold change vs veh, GTPBP10 / RFU, CNEP1R1 / Fold change vs veh, CNEP1R1 / RFU, BIVM-ERCC5 /// ERCC5 / Fold change vs veh, BIVM-ERCC5 /// ERCC5 / RFU, ILF3 / Fold change vs veh, ILF3 / RFU 11762660_at / Fold change /veh 11762660_at / RFU VCAN (11757783_s_at) / Fold change /veh VCAN (11757783_s_at) / RFU DDX43 (11728927_at) / Fold change /veh DDX43 (11728927_at) / RFU KRT8 (11758188_x_at) / Fold change /veh KRT8 (11758188_x_at) / RFU NKD1 (11759106_at) / Fold change /veh NKD1 (11759106_at) / RFU SRD5A1 (11742802_a_at) / Fold change /veh SRD5A1 (11742802_a_at) / RFU TPSAB1 /// TPSB2 (11721975_s_at) / Fold change /veh TPSAB1 /// TPSB2 (11721975_s_at) / RFU GSTM3 (11746129_a_at) / Fold change /veh GSTM3 (11746129_a_at) / RFU IL23R (11737362_x_at) / Fold change /veh IL23R (11737362_x_at) / RFU TMEM51 (11727254_a_at) / Fold change /veh TMEM51 (11727254_a_at) / RFU PIWIL2 (11732686_x_at) / Fold change /veh PIWIL2 (11732686_x_at) / RFU ORM1 (11744905_x_at) / Fold change /veh ORM1 (11744905_x_at) / RFU CCDC152 (11743942_at) / Fold change /veh CCDC152 (11743942_at) / RFU ECM1 (11717891_a_at) / Fold change /veh ECM1 (11717891_a_at) / RFU IL23R (11748794_a_at) / Fold change /veh IL23R (11748794_a_at) / RFU TNFAIP8L3 (11732012_x_at) / Fold change /veh TNFAIP8L3 (11732012_x_at) / RFU MBOAT4 (11741988_at) / Fold change /veh MBOAT4 (11741988_at) / RFU 11764193_at / Fold change /veh 11764193_at / RFU TMEM53 (11763286_at) / Fold change /veh TMEM53 (11763286_at) / RFU MAGEB2 (11727129_at) / Fold change /veh MAGEB2 (11727129_at) / RFU TMEM200A (11744735_a_at) / Fold change /veh TMEM200A (11744735_a_at) / RFU CCDC152 (11751479_a_at) / Fold change /veh CCDC152 (11751479_a_at) / RFU FAM211A (11726209_a_at) / Fold change /veh FAM211A (11726209_a_at) / RFU RGS16 (11746705_a_at) / Fold change /veh RGS16 (11746705_a_at) / RFU VCAN (11755009_s_at) / Fold change /veh VCAN (11755009_s_at) / RFU RHOB (11743442_s_at) / Fold change /veh RHOB (11743442_s_at) / RFU RGS16 (11720943_a_at) / Fold change /veh RGS16 (11720943_a_at) / RFU RGS16 (11720944_at) / Fold change /veh RGS16 (11720944_at) / RFU, VPS4B / Fold change vs veh, VPS4B / RFU, CREB1 / Fold change vs veh, CREB1 / RFU, DNAJC13 / Fold change vs veh, DNAJC13 / RFU, GNAQ / Fold change vs veh, GNAQ / RFU, CDK5R1 / Fold change vs veh, CDK5R1 / RFU, ZRANB3 / Fold change vs veh, ZRANB3 / RFU, CUL4A / Fold change vs veh, CUL4A / RFU, CCNY / Fold change vs veh, CCNY / RFU, UFL1 / Fold change vs veh, UFL1 / RFU, COG3 / Fold change vs veh, COG3 / RFU, DIAPH2 / Fold change vs veh, DIAPH2 / RFU, SKA2 / Fold change vs veh, SKA2 / RFU, AFF3 / Fold change vs veh, AFF3 / RFU, LMF1 / Fold change vs veh, LMF1 / RFU, IPO11 / Fold change vs veh, IPO11 / RFU, DFFB / Fold change vs veh, DFFB / RFU, FOXP1 / Fold change vs veh, FOXP1 / RFU, CARD8 / Fold change vs veh, CARD8 / RFU, STRN3 / Fold change vs veh, STRN3 / RFU, ADK / Fold change vs veh, ADK / RFU, RASSF2 / Fold change vs veh, RASSF2 / RFU, WIPF1 / Fold change vs veh, WIPF1 / RFU, LARP1B / Fold change vs veh, LARP1B / RFU, RASA1 / Fold change vs veh, RASA1 / RFU, RB1 / Fold change vs veh, RB1 / RFU, PPFIA1 / Fold change vs veh, PPFIA1 / RFU, MAT2A / Fold change vs veh, MAT2A / RFU, CCT5 / Fold change vs veh, CCT5 / RFU, WDR92 / Fold change vs veh, WDR92 / RFU, CUX1 / Fold change vs veh, CUX1 / RFU, TTC7A / Fold change vs veh, TTC7A / RFU, TMEM135 / Fold change vs veh, TMEM135 / RFU, DEPTOR / Fold change vs veh, DEPTOR / RFU, CPM / Fold change vs veh, CPM / RFU, DNAJB6 / Fold change vs veh, DNAJB6 / RFU, CACNA2D3 / Fold change vs veh, CACNA2D3 / RFU, DTX4 / Fold change vs veh, DTX4 / RFU, TFCP2 / Fold change vs veh, TFCP2 / RFU, GMCL1 /// GMCL1P1 / Fold change vs veh, GMCL1 /// GMCL1P1 / RFU, AEBP2 / Fold change vs veh, AEBP2 / RFU, SNHG1 /// SNORD22 /// SNORD25 /// SNORD26 /// SNORD27 /// SNORD28 /// SNORD29 /// SNORD31 / Fold change vs veh, SNHG1 /// SNORD22 /// SNORD25 /// SNORD26 /// SNORD27 /// SNORD28 /// SNORD29 /// SNORD31 / Fold change (Aza/veh), C12orf56 (ProbeSet 11735607_a_at) / Fold change (ACY-1035/veh), C12orf56 (ProbeSet 11735607_a_at) / Fold change (Aza/veh), FGFR1OP (ProbeSet 11751329_s_at) / Fold change (ACY-1035/veh), FGFR1OP (ProbeSet 11751329_s_at) / Fold change (Aza/veh), VPS36 (ProbeSet 11739960_a_at) / Fold change (ACY-1035/veh), VPS36 (ProbeSet 11739960_a_at) / RFU SYPL1 (11715823_x_at) / Fold change /veh SYPL1 (11715823_x_at) / RFU IGFBP7 (11715501_s_at) / Fold change /veh IGFBP7 (11715501_s_at) / RFU REEP3 (11722064_at) / Fold change /veh REEP3 (11722064_at) / RFU IGLL1 (11728026_x_at) / Fold change /veh IGLL1 (11728026_x_at): dose or concentration left out as unconfirmed
# Details: MV-4-11 cells, 48 hours
compound,measurement,value
Nc1ccc(-c2cccs2)cc1NC(=O)c1ccc2c(c1)cc(C1CC1)n2CCN1CCOCC1 [ACY-1035],RFU EBF3 (11725865_a_at),63.04 RFU
